Laboratory results reported in PubChem BioAssay AID1963983 (Molecular Pharmacology Branch, DTP, NCI, 2024).

Test system: 186277-243-T-J2-PDC multi-cell spheroid viability
Assay: Anticancer human tumor 186277-243-T-J2-PDC patient-derived colon adenocarcinoma cell line growth inhibition [PI3K]
Conditions: for IC50: curve of first compound; for viability, T/C: stronger effect = lower value
Procedure, shortened: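 High-throughput combination screen: PI3K inhibitors crossed with targeted small molecules on complex spheroids of tumor cells, HUVEC and MSCs at 37 degrees C, 5% CO2. Top concentration was at or near clinical Cmax (otherwise 10 microM), with half-log decrements.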

[1] = second compound 0.0316 µM, first compound 0.0316 µM
[2] = second compound 0.0316 µM, first compound 0.1 µM
[3] = second compound 0.0316 µM, first compound 0.316 µM
[4] = second compound 0.0316 µM, first compound 1 µM
[5] = second compound 0.0316 µM, first compound 3.16 µM
[6] = second compound 0.0316 µM, first compound 10 µM
[7] = second compound 0.1 µM, first compound 0.0316 µM
[8] = second compound 0.1 µM, first compound 0.1 µM
[9] = second compound 0.1 µM, first compound 0.316 µM
[10] = second compound 0.1 µM, first compound 1 µM
[11] = second compound 0.1 µM, first compound 3.16 µM
[12] = second compound 0.1 µM, first compound 10 µM
[13] = second compound 0.316 µM, first compound 0.0316 µM
[14] = second compound 0.316 µM, first compound 0.1 µM
[15] = second compound 0.316 µM, first compound 0.316 µM
[16] = second compound 0.316 µM, first compound 1 µM
[17] = second compound 0.316 µM, first compound 3.16 µM
[18] = second compound 0.316 µM, first compound 10 µM
[19] = second compound 1 µM, first compound 0.0316 µM
[20] = second compound 1 µM, first compound 0.1 µM
[21] = second compound 1 µM, first compound 0.316 µM
[22] = second compound 1 µM, first compound 1 µM
[23] = second compound 1 µM, first compound 3.16 µM
[24] = second compound 1 µM, first compound 10 µM
[25] = second compound 3.16 µM, first compound 0.0316 µM
[26] = second compound 3.16 µM, first compound 0.1 µM
[27] = second compound 3.16 µM, first compound 0.316 µM
[28] = second compound 3.16 µM, first compound 1 µM
[29] = second compound 3.16 µM, first compound 3.16 µM
[30] = second compound 3.16 µM, first compound 10 µM
[31] = second compound 10 µM, first compound 0.0316 µM
[32] = second compound 10 µM, first compound 0.1 µM
[33] = second compound 10 µM, first compound 0.316 µM
[34] = second compound 10 µM, first compound 1 µM
[35] = second compound 10 µM, first compound 3.16 µM
[36] = second compound 10 µM, first compound 10 µM
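Also: spheroids exposed to compounds for seven days before viability reading.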
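For viability, T/C in this document: 100% = DMSO vehicle control viability.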

C#Cc1c(F)ccc2cc(O)cc(-c3ncc4c(N5CC6CCC(C5)N6)nc(OCC56CCCN5CC(F)C6)nc4c3F)c12 (centres undefined) + Cc1nc(NC(=O)N2CCCC2C(N)=O)sc1-c1ccnc(C(C)(C)C(F)(F)F)c1
IC50 (second compound 0.0316 µM): 0.0744 µM | IC50 (second compound 0.1 µM): 0.0468 µM | IC50 (second compound 0.316 µM): < 0.0316 µM | IC50 (second compound 1 µM): < 0.0316 µM | IC50 (second compound 3.16 µM): < 0.0316 µM | IC50 (second compound 10 µM): < 0.0316 µM | viability, T/C [1]: 84.8% | viability, T/C [2]: 37.5% | viability, T/C [3]: 20% | viability, T/C [4]: 13.5% | viability, T/C [5]: 10.9% | viability, T/C [6]: 9.63% | viability, T/C [7]: 60.6% | viability, T/C [8]: 29.4% | viability, T/C [9]: 15.1% | viability, T/C [10]: 11.4% | viability, T/C [11]: 8.35% | viability, T/C [12]: 7.01% | viability, T/C [13]: 30.4% | viability, T/C [14]: 15.5% | viability, T/C [15]: 7.34% | viability, T/C [16]: 12.6% | viability, T/C [17]: 6.32% | viability, T/C [18]: 6.56% | viability, T/C [19]: 17.2% | viability, T/C [20]: 9.55% | viability, T/C [21]: 10.3% | viability, T/C [22]: 6.06% | viability, T/C [23]: 4.61% | viability, T/C [24]: 1.79% | viability, T/C [25]: 12.9% | viability, T/C [26]: 5.57% | viability, T/C [27]: 3.63% | viability, T/C [28]: 4.54% | viability, T/C [29]: 3.29% | viability, T/C [30]: 1.25% | viability, T/C [31]: 3.63% | viability, T/C [32]: 3.77% | viability, T/C [33]: 2.79% | viability, T/C [34]: 2% | viability, T/C [35]: 0.83% | viability, T/C [36]: 0.22%

C=CC(=O)N1CCN(c2nc(=O)n(-c3c(C)ccnc3C(C)C)c3nc(-c4c(O)cccc4F)c(F)cc23)C(C)C1 (centres undefined) + Cc1nc(NC(=O)N2CCCC2C(N)=O)sc1-c1ccnc(C(C)(C)C(F)(F)F)c1
IC50 (second compound 0.0316 µM): > 10 µM | IC50 (second compound 0.1 µM): > 10 µM | IC50 (second compound 0.316 µM): > 10 µM | IC50 (second compound 1 µM): > 10 µM | IC50 (second compound 3.16 µM): 0.605 µM | IC50 (second compound 10 µM): < 0.0316 µM | viability, T/C [1]: 83.7% | viability, T/C [2]: 108% | viability, T/C [3]: 105% | viability, T/C [4]: 88.1% | viability, T/C [5]: 100% | viability, T/C [6]: 94.8% | viability, T/C [7]: 102% | viability, T/C [8]: 99.2% | viability, T/C [9]: 106% | viability, T/C [10]: 95.6% | viability, T/C [11]: 92% | viability, T/C [12]: 103% | viability, T/C [13]: 108% | viability, T/C [14]: 107% | viability, T/C [15]: 96.6% | viability, T/C [16]: 104% | viability, T/C [17]: 86.9% | viability, T/C [18]: 85% | viability, T/C [19]: 93.4% | viability, T/C [20]: 102% | viability, T/C [21]: 87.6% | viability, T/C [22]: 94.5% | viability, T/C [23]: 80% | viability, T/C [24]: 57.5% | viability, T/C [25]: 61.6% | viability, T/C [26]: 51.9% | viability, T/C [27]: 46.5% | viability, T/C [28]: 52.7% | viability, T/C [29]: 41.1% | viability, T/C [30]: 26.3% | viability, T/C [31]: 11.1% | viability, T/C [32]: 12.8% | viability, T/C [33]: 14.5% | viability, T/C [34]: 9.26% | viability, T/C [35]: 10.8% | viability, T/C [36]: 13.2%
